Experiments:
[1] = tested on: primary gram negative uropathogens; test: five-well device (TVB, UTI, AMO, AMC, ENR wells), fluorescence, four urine samples; format: cell-based; conditions: Sample 2; incubation 18 hours
Source text: In a presently preferred embodiment, this invention comprises a device having a series of 5 test wells. Each well comprises a specific medium coupled with a fluorogenic enzyme substrate for the detection of target bacteria and their respective antibiotic resistance patterns. The wells produce a fluorescent signal when bacteria grow in them.
The wells were termed a total viable bacteria “TVB” well, a primary gram negative urinary tract infection organisms “UTI” well, and individual wells which contain an antimicrobial susceptibility media with an antibiotic amoxicillin “AMO”, clavulanic acid/amoxicillin (Clavamox®) “AMC”, or enrofloxacin (Baytril®) “ENR”.
The total viable bacteria “TVB” well, when it fluoresces, indicates the presence of bacteria in the urine sample. The “UTI” well fluoresces when the common Gram-negative uropathogens (E. coli, Klebsiella or Enterobacter spp., and P. mirabilis) are present in the urine sample. […]
For each device, after an incubation period of 18 hours, the wells were examined for the development of fluorescence and conclusions about the presence of primary urinary pathogens and their susceptibility to the antimicrobial agents employed were drawn.

[2] = tested on: gram negative urinary pathogens (Escherichia coli, Klebsiella spp, Enterobacter spp., Proteus spp.); test: standard Kirby-Bauer antimicrobial susceptibility assay, amoxicillin; format: cell-based, feline and canine urine specimens; conditions: Total of 58
Method: (§1) For comparison a traditional microbiological culture, bacterial identification technique, and antimicrobial susceptibility test were performed. A portion of 1 μl urine specimen was streaked onto a blood agar plate; the plate was then incubated at 35° C. for 24–48 hours. […] The susceptibility of amoxicillin of the gram negative urinary pathogens (Escherichia coli, Klebsiella spp, Enterobacter supp., and Proteus spp.) Were performed by standard Kirby-Bauer antimicrobial susceptibility assay.

[3] = tested on: gram negative urinary pathogens (Escherichia coli, Klebsiella spp, Enterobacter spp., Proteus spp.); test: AMO medium (amoxicillin) in urinary tract infection device; format: cell-based, feline and canine urine specimens
Method: The medium is formulated according to techniques well known to those skilled in the art. The medium comprises UTI media with amoxicillin at a concentration of 8 mg/liter.
A total of 303 feline and canine urine specimens were collected from the animals suspected of having urinary tract infection were tested with the “AMO” medium. A 50 μl aliquot of the urine specimen was added to 10 ml of sterile saline solution (0.85% NaCl solution). A 100 μl of the diluted urine specimens were added to the “AMO” medium in the urinary tract infection device; the device was then incubated at 35° C. for 24 hours.

[4] = tested on: gram negative urinary pathogens (Escherichia coli, Klebsiella spp, Enterobacter spp., Proteus spp.); test: standard Kirby-Bauer antimicrobial susceptibility assay, enrofloxacin; format: cell-based, feline and canine urine specimens; conditions: Total of 58
Method: as §1, with “enrofloxacin” for “amoxicillin”, “spp.,” for “supp.,”, “were” for “Were”

[5] = tested on: gram negative urinary pathogens (Escherichia coli, Klebsiella spp, Enterobacter spp., Proteus spp.); test: ENR medium (enrofloxacin) in urinary tract infection device; format: cell-based, feline and canine urine specimens
Method: The medium is formulated according to techniques well known to those skilled in the art. The media comprises UTI media with enrofloxacin (ENR) at a concentration of 2.0 mg/liter.
A total of 303 feline and canine urine specimens were collected from the animals suspected of having urinary tract infection were tested with the “ENR” medium. A 50 μl aliquot of the urine specimen was added to 10 ml of sterile saline solution (0.85% NaCl solution). A 100 μl of the diluted urine specimens was added to the “ENR” medium in the urinary tract infection device; the device was then incubated at 35° C. for 24 hours.

[6] = tested on: Enterobacter cloacae ATCC 13047; test: standard Muller Hinton broth (MHB) microdilution susceptibility; format: cell-based; conditions: E. cloacae
Method: (§2) The representative primary gram negative urinary pathogens including Escherichia coli ATCC 25922, Klebsiella pneumoniae, Enterobacter cloacae ATCC 13047, and Proteus mirabilis were used to determine the antimicrobial efficacy of cephalothin in CR 30 medium in reaction to the standard Muller Hinton microdilution antimicrobial susceptibility ((NCCLS Antimicrobial Susceptibility Testing/SC3, January, 1996). Cephalothin was prepared in both standard Muller Hinton broth (MHB) and CR30 medium (CR30M) at the following concentrations: 128, 64, 32, 16, 8, 4, 2, and 0 mg/liter. Bacterial inocula used for each level of inoculation were 1–5×10^4 cfu/100 μl. The assays were performed in microliter wells at 35° C. for 18 hours.
(§3) The bacteria are defined as “resistant” to cephalothin if the organism has an MIC of ≧32 μg/ml, as “intermediate resistant” if the MIC is 16 μg/ml, and as “susceptible” if the MIC is 8 μg/ml as determined by the standard Muller Hinton broth (Manual of Clinical Microbiology, 6th ed. 1995; ASM Press).

Proteus mirabilis [7] = test: as above; format: cell-based; conditions: P. mirabilis
Method: as §2, §3

Klebsiella pneumoniae [8] = test: as above; format: cell-based; conditions: K. pneumoniae
Method: as §2, §3

[9] = tested on: Escherichia coli ATCC 25922; test: as above; format: cell-based; conditions: E. coli
Method: as §2, §3

[10] = tested on: Enterobacter cloacae ATCC 13047; test: CR30 medium (CR30M) microdilution susceptibility; format: cell-based; conditions: E. cloacae
Method: (§4) The medium is formulated according to techniques well known to those skilled in the art. The medium comprises the uropathogen specific medium with 32 mg/liter of cephalothin.
as §2, §3

Proteus mirabilis [11] = test: CR30 medium (CR30M) microdilution susceptibility; format: cell-based; conditions: P. mirabilis
Method: as §4, §2, §3

Klebsiella pneumoniae [12] = test: CR30 medium (CR30M) microdilution susceptibility; format: cell-based; conditions: K. pneumoniae
Method: as §4, §2, §3

[13] = tested on: Escherichia coli ATCC 25922; test: CR30 medium (CR30M) microdilution susceptibility; format: cell-based; conditions: E. coli
Method: as §4, §2, §3

[14] = Susceptible by Kirby-Bauer Assay

SMILES: CC1(C)S[C@@H]2[C@H](NC(=O)[C@H](N)c3ccc(O)cc3)C(=O)N2[C@H]1C(=O)O [Amoxicillin, amoxicillin]
- susceptibility of primary gram negative uropathogens to the antimicrobial agent [1]: resistant
- number of specimens Resistant by Kirby-Bauer Assay [2]: 22
- number of specimens Susceptible by Kirby-Bauer Assay [2]: 36
- number of specimens Resistant in AMO Medium ([3]; Resistant by Kirby-Bauer Assay): 21
- number of specimens Susceptible in AMO Medium ([3]; Resistant by Kirby-Bauer Assay): 1
- number of specimens Resistant in AMO Medium [3, 14]: 1
- number of specimens Susceptible in AMO Medium [3, 14]: 35
- number of specimens Resistant in AMO Medium ([3]; Total of 58): 22
- number of specimens Susceptible in AMO Medium ([3]; Total of 58): 36

SMILES: CCN1CCN(c2cc3c(cc2F)c(=O)c(C(=O)O)cn3C2CC2)CC1 [Enrofloxacin, enrofloxacin]
- susceptibility of primary gram negative uropathogens to the antimicrobial agent [1]: susceptible
- number of specimens Resistant by Kirby-Bauer Assay [4]: 6
- number of specimens Susceptible by Kirby-Bauer Assay [4]: 52
- number of specimens Resistant in ENR Medium ([5]; Resistant by Kirby-Bauer Assay): 5
- number of specimens Susceptible in ENR Medium ([5]; Resistant by Kirby-Bauer Assay): 1
- number of specimens Resistant in ENR Medium [5, 14]: 2
- number of specimens Susceptible in ENR Medium [5, 14]: 50
- number of specimens Resistant in ENR Medium ([5]; Total of 58): 7
- number of specimens Susceptible in ENR Medium ([5]; Total of 58): 51

SMILES: CC(=O)OCC1=C(C(=O)O)N2C(=O)[C@@H](NC(=O)Cc3cccs3)[C@H]2SC1 [cephalothin]
- categorical susceptibility to cephalothin [6]: resistant
- categorical susceptibility to cephalothin (Proteus mirabilis [7]): susceptible
- categorical susceptibility to cephalothin (Klebsiella pneumoniae [8]): susceptible
- categorical susceptibility to cephalothin [9]: susceptible
- categorical susceptibility to cephalothin [10]: resistant
- categorical susceptibility to cephalothin (Proteus mirabilis [11]): susceptible
- categorical susceptibility to cephalothin (Klebsiella pneumoniae [12]): susceptible
- categorical susceptibility to cephalothin [13]: susceptible

Source: patent US6984499B2, “Method and apparatus for concurrently detecting pathogenic organisms and antimicrobial susceptibility” (IDEXX Laboratories, Inc., priority 1997, dated 2006)
